From US10034886B2, “GLP-1 receptor modulators” (Celgene International II SÀRL, priority 2014, dated 2018)
Read-outs that look alike come from different tables or passages of the source.

Molecular target: T1, GLP-1R (Homo sapiens, UniProt P43220)
T1 construct: host or cells: GLP-1R CRE-bla CHO-K1 cells
Assay: EC20 GLP-1(9-36) PAM cAMP assay: dose response of compound in the presence of fixed concentration of GLP-1(9-36)
Assay type: cell-based
Conditions: GLP-1R CRE-bla CHO-K1 cells, read-out: EC20 GLP-1(9-36) PAM EC50
Method in brief: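 Positive allosteric modulation read as cAMP accumulation: compound titrations (12 points) combined with an EC20 level of GLP-1(9-36) on CHO-K1 GLP-1R CRE-bla cells, IBMX present, 30 min, 37 °C, pH 7.4 buffer. Luminescence converted to cAMP via standards; non-linear fit gave EC50 and Emax.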

[1] = compound dose response with fixed concentration of GLP-1(9-36)
[2] = dose response of compound in presence of fixed concentration of GLP-1(9-36)

T1 sequence (P43220 24-463): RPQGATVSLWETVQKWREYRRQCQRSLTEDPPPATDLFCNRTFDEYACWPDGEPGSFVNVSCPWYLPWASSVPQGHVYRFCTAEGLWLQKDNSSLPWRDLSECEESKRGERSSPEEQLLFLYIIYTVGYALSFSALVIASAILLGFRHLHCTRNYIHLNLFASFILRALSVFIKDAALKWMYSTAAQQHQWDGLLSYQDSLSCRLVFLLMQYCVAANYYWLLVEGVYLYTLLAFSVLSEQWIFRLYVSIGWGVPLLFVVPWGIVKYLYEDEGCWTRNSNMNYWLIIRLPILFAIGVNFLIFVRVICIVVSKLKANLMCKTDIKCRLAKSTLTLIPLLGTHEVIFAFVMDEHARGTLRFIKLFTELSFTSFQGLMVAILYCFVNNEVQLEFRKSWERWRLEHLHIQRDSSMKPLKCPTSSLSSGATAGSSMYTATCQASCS
T1 sequence (P01275 100-127 partner limits assumed): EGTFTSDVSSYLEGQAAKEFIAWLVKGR

SMILES | EC50 [1] [nM] | EC50 [2] [nM]
CCC[C@H]1CC[C@H](C2CCN(c3cnc(-c4ccc(C[C@H](NC(=O)c5ccc(C(C)(C)C)s5)C(=O)N[C@H](C)C(N)=O)cc4)nc3)CC2)CC1 [Compound 1441] | 800 to 2500 | 
CC(C)CCCCOc1ccc(-c2cnc(-c3ccc(C[C@H](NC(=O)c4ccc(C(C)(C)C)s4)C(=O)NC(C(=O)O)C(O)c4ccccc4)cc3)nc2)cc1 (stereo partly drawn) [Compound 923] |  | 800 to 2500
CC[C@H]1CC[C@H](c2ccc(-c3cnc(-c4ccc(C[C@H](NC(=O)c5ccc(C(C)=O)cc5)C(=O)O)cc4)nc3)cc2)CC1 [Compound 1376] | 800 to 2500 | 
CCCCCCCOc1ccc(-c2cnc(-c3ccc(C[C@H](NC(=O)c4ccc(C(C)(C)C)s4)C(=O)N[C@H](CC(=O)NC)C(=O)O)cc3)nc2)cc1 [Compound 663] |  | 800 to 2500
Cc1ccc(-c2ccc(-c3cnc(-c4ccc(C[C@H](NC(=O)c5ccc(C(C)(C)C)s5)C(=O)N[C@H](C)C(=O)O)cc4)nc3)c(F)c2)cc1 [Compound 1172] |  | 800 to 2500
CCCCCOc1ccc(-c2cnc(-c3ccc(C[C@H](NC(=O)c4ccc(C(C)(C)C)s4)C(=O)N4CC(C(=O)O)C4)cc3)nc2)cc1 [Compound 787] |  | 800 to 2500
COc1cc(C(=O)N[C@@H](Cc2ccc(-c3ncc(-c4ccc(OCCCC(C)C)cc4)cn3)cc2)C(=O)N2CC(C(=O)O)C2)ccc1C(C)(C)C [Compound 1239] | 800 to 2500 | 
CCCCCCCOc1ccc(-c2cnc(-c3ccc(C[C@H](NC(=O)c4ccc(C(C)(C)C)s4)C(=O)NC(C(=O)O)c4c(C)n[nH]c4C)cc3)nc2)cc1 (stereo partly drawn) [Compound 598] |  | < 800
CCCCCCCOc1ccc(-c2cnc(-c3ccc(C[C@H](NC(=O)c4ccc(C(C)(C)C)s4)C(=O)N[C@H](C)C(=O)O)cc3)nc2)nc1 [Compound 1063] |  | < 800
CCCCCCCOc1ccc(-c2cnc(-c3ccc(C[C@H](NC(=O)c4ccc(C(C)(C)C)cc4)C(=O)NC(Cc4cscn4)C(=O)O)cc3)nc2)cc1 (stereo partly drawn) [Compound 544] |  | < 800
CCCCCCCOc1ccc(-c2cnc(-c3ccc(C[C@H](NC(=O)c4ccc(C(C)C)s4)C(=O)N4CC[C@H](C(=O)O)C4)cc3)nc2)cc1 [Compound 845] |  | 2500 to 5000
CCCCCCCOc1ccc(-c2cnc(-c3ccc(C[C@H](NC(=O)c4ccc(OC(C)C)cc4)C(=O)NC(C(=O)O)C(O)c4ccccc4)cc3)nc2)cc1 (stereo partly drawn) [Compound 950] |  | 800 to 2500
CCCCCCCOc1ccc(-c2cnc(-c3ccc(C[C@H](NC(=O)c4ccc(CC)s4)C(=O)N[C@H](C)C(=O)O)cc3)nc2)cc1 [Compound 839] |  | 800 to 2500
CCCCCCCOc1ccc(-c2cnc(-c3ccc(C[C@H](NC(=O)c4ccc(C(C)(C)C)s4)C(=O)NC(C(=O)O)C(O)c4ccc(Cl)cc4)cc3)nc2)cc1 (stereo partly drawn) [Compound 901] |  | 800 to 2500
CC(C)CCCCOc1ccc(-c2cnc(-c3ccc(C[C@H](NC(=O)c4ccc(C(C)(C)C)s4)C(=O)N[C@H](C)C(=O)O)cc3)nc2)cc1 [Compound 770] |  | < 800
CCCc1ccc(C(=O)N[C@@H](Cc2ccc(-c3ncc(N4CCC([C@H]5CC[C@H](CCC)CC5)CC4)cn3)cc2)C(=O)N2CC(C(=O)O)C2)cc1 [Compound 1521] | < 800 | 
CCCCCCOc1ccc(-c2cnc(-c3ccc(C[C@H](NC(=O)c4ccc(C(C)(C)C)s4)C(=O)N[C@H](C)C(=O)O)cc3)nc2)cc1 [Compound 735] |  | 800 to 2500
C[C@@H](NC(=O)[C@H](Cc1ccc(-c2ncc(/C=C\CCCc3ccccc3)cn2)cc1)NC(=O)c1ccc(C(C)(C)C)s1)C(=O)O [Compound 1051] |  | 5000 to 10000
CCC/C=C\CCOc1ccc(-c2cnc(-c3ccc(C[C@H](NC(=O)c4ccc(C(C)(C)C)cc4)C(=O)NCCC(=O)O)cc3)nc2)cc1 [Compound 715] |  | 2500 to 5000
CCCCC[C@H]1CC[C@H](c2ccc(-c3cnc(-c4ccc(C[C@H](NC(=O)c5ccc(C(C)(C)C)s5)C(=O)N[C@H](C)C(=O)O)cc4)nc3)cc2)CC1 [Compound 1310] | 2500 to 5000 | 
CCCCCCCOc1ccc(-c2cnc(-c3ccc(C[C@H](NC(=O)c4ccc(C(C)(C)C)s4)C(=O)NC(C(=O)O)c4ccc(C(F)(F)F)cc4)cc3)nc2)cc1 (stereo partly drawn) [Compound 618] |  | 5000 to 10000
CCCCCCCOc1ccc(-c2cnc(-c3ccc(C[C@H](NC(=O)c4cnc(C(C)(C)C)nc4)C(=O)N4CCC[C@H]4C(=O)O)cc3)nc2)cc1 [Compound 1078] |  | 2500 to 5000
CCCCCCCOc1ccc(-c2cnc(-c3ccc(C[C@H](NC(=O)c4ccc(C(C)(C)C)s4)C(=O)N[C@@H](CC(=O)O)C(=O)N4CCCC4)cc3)nc2)cc1 [Compound 528] |  | < 800
Cc1cc(-c2ccc(-c3cnc(-c4ccc(C[C@H](NC(=O)c5ccc(C(C)(C)C)s5)C(=O)N[C@H](C)C(=O)O)cc4)nc3)c(F)c2)ccc1OC(F)(F)F [Compound 1175] |  | < 800
CCCCCCCOc1ccc(-c2cnc(-c3ccc(C[C@H](NC(=O)c4ccc(OCCC)cc4)C(=O)N4CC[C@H](C(=O)O)C4)cc3)nc2)cc1 [Compound 1097] |  | 800 to 2500
CCCCCCCOc1ccc(-c2cnc(-c3ccc(C[C@H](NC(=O)Cc4ccc(OCCCC)cc4)C(=O)N4CC(C(=O)O)C4)cc3)nc2)cc1 [Compound 1102] |  | 800 to 2500

SMILES | EC50 [1] [nM] | EC50 [2] [nM]
CCCCCCCOc1ccc(-c2cnc(-c3ccc(C[C@H](NC(=O)c4ccc(C(C)(C)C)s4)C(=O)NC[C@H]4CCNC4)cc3)nc2)cc1 [Compound 438] |  | 5000 to 10000
CCCCCCCOc1ccc(-c2cnc(-c3ccc(C[C@H](NC(=O)c4ccc(C(C)(C)C)s4)C(=O)NC(CCCC)C(=O)O)cc3)nc2)cc1 (stereo partly drawn) [Compound 609] |  | < 800
CCCc1ccc(-c2ccc(-c3cnc(-c4ccc(C[C@H](NC(=O)c5ccc(CCC)s5)C(=O)N5CC(C(=O)O)C5)cc4)nc3)c(F)c2)cc1 [Compound 1409] | < 800 | 
Cc1cccc(C)c1-c1ccc(-c2cnc(-c3ccc(C[C@H](NC(=O)c4ccc(C(C)(C)C)s4)C(=O)N4CC(C(=O)O)C4)cc3)nc2)c(F)c1 [Compound 1205] | < 800 | 
C[C@@H](NC(=O)[C@H](Cc1ccc(-c2ncc(-c3ccc(OCc4ccccc4)nc3)cn2)cc1)NC(=O)c1ccc(C(C)(C)C)s1)C(=O)O [Compound 1040] |  | 5000 to 10000
CCC[C@H]1CC[C@H](C2CCN(c3cnc(-c4ccc(C[C@H](NC(=O)c5cnc(C(C)(C)C)nc5)C(=O)N5CC(C(=O)O)C5)cc4)nc3)CC2)CC1 [Compound 1514] | < 800 | 
CCCCCCCOc1ccc(-c2cnc(-c3ccc(C[C@H](NC(=O)c4ccc(C(C)(C)C)cc4)C(=O)N[C@@H](CO)C(=O)O)cc3)nc2)cc1 [Compound 418] |  | < 800
CCCCCCCOc1ccc(-c2cnc(-c3ccc(C[C@H](NC(=O)c4ccc(C(C)(C)C)cc4C)C(=O)N4CC[C@H](C(=O)O)C4)cc3)nc2)cc1 [Compound 868] |  | 800 to 2500
CCCCCCCOc1ccc(-c2cnc(-c3ccc(C[C@H](NC(=O)c4ccc(C(C)(C)C)cc4)C(=O)NCCC(=O)O)cc3)nc2)cc1C#N [Compound 700] |  | 5000 to 10000
CCCCCCCOc1ccc(-c2cnc(-c3ccc(C[C@H](NC(=O)c4ccc(C(C)(C)C)s4)C(=O)N[C@@H](CC(=O)O)C(=O)N(C)C)cc3)nc2)cc1 [Compound 527] |  | < 800
CC(C)(C)c1ccc(C(=O)N[C@@H](Cc2ccc(-c3ncc(-c4ccc(-c5ccccc5)cc4)cn3)cc2)C(=O)N2CCC[C@H]2C(=O)O)s1 [Compound 1124] |  | < 800
CC(C)(C)c1ccc(C(=O)N[C@@H](Cc2ccc(-c3ncc(-c4ccc(OCC5CCC(C(C)(C)C)CC5)cc4)cn3)cc2)C(=O)NCCC(=O)O)cc1 (stereo partly drawn) [Compound 803] |  | 800 to 2500
CCCCCCCOc1ccc(-c2cnc(-c3ccc(C[C@H](NC(=O)c4ccc(C(C)(C)C)cc4)C(=O)N[C@H](C(=O)O)[C@@H](C)CC)cc3)nc2)cc1 [Compound 449] |  | 800 to 2500
CN(C)c1ccc(C2CCN(c3cnc(-c4ccc(CC(NC(=O)c5ccc(C(C)(C)C)s5)C(=O)N5CC(C(=O)O)C5)cc4)nc3)CC2)cc1 (stereo not drawn) [Compound 1517] | < 800 | 
COc1ccc(-c2cnc(-c3ccc(C[C@H](NC(=O)c4ccc(C(C)(C)C)s4)C(=O)N4CC(C(=O)O)C4)cc3)nc2)cc1 [Compound 784] |  | 5000 to 10000
Cc1ccc(/C=C/c2cnc(-c3ccc(C[C@H](NC(=O)c4ccc(C(C)(C)C)s4)C(=O)N4CC[C@H](C(=O)O)C4)cc3)nc2)cc1 [Compound 1085] |  | 800 to 2500
CCCCCCCOc1ccc(-c2cnc(-c3ccc(C[C@H](NC(=O)c4ccc(C(C)(C)C)s4)C(=O)N[C@@H](CC(=O)N[C@@H](CO)C(=O)O)C(=O)O)cc3)nc2)cc1 [Compound 517] |  | < 800
CC(C)CCCOc1ccc(-c2cnc(-c3ccc(C[C@H](NC(=O)c4ccc(C(C)(C)C)cc4)C(=O)N[C@H](C)C(=O)O)cc3)nc2)cc1 [Compound 793] |  | 800 to 2500
CCCCCCCOc1ccc(-c2cnc(-c3ccc(C[C@H](NC(=O)c4ccc(C(C)(C)C)s4)C(=O)NC(C(=O)O)c4ccco4)cc3)nc2)cc1 (stereo partly drawn) [Compound 412] |  | < 800
CCCCCCCOc1ccc(-c2cnc(-c3ccc(C[C@H](NC(=O)c4ccc(C(C)(C)CC)cc4)C(=O)N4CCC[C@H]4C(=O)O)cc3)nc2)cc1 [Compound 1082] |  | 800 to 2500
CC[C@H]1CC[C@H](c2ccc(-c3cnc(-c4ccc(C[C@H](NC(=O)c5ccc(C(F)(F)F)nc5)C(=O)O)cc4)nc3)cc2)CC1 [Compound 1388] | 800 to 2500 | 
CC[C@H]1CC[C@H](c2ccc(-c3cnc(-c4ccc(C[C@H](NC(=O)c5ccc(C(C)C)s5)C(=O)N5CC(C(=O)O)C5)cc4)nc3)cc2)CC1 [Compound 1167] |  | < 800
CCC[C@H]1CC[C@@H](N2CCN(c3cnc(-c4ccc(C[C@H](NC(=O)c5ccc(C(C)(C)C)s5)C(=O)N5CC(C(=O)O)C5)cc4)nc3)CC2)CC1 [Compound 1436] | 800 to 2500 | 
CC(=O)c1cccc(-c2ccc(-c3cnc(-c4ccc(C[C@H](NC(=O)c5ccc(C(C)(C)C)s5)C(=O)N5CC(C(=O)O)C5)cc4)nc3)c(F)c2)c1 [Compound 1193] |  | < 800
C[C@@H](NC(=O)[C@H](Cc1ccc(-c2ncc(-c3ccc(-c4ccc(C(F)(F)F)cc4)cc3)cn2)cc1)NC(=O)c1ccc(C(C)(C)C)s1)C(=O)O [Compound 1313] | < 800 | 
